Measured values reported in patent publication US20170143712A1, “Methods of Treating Cancers, Immune and Autoimmune Diseases, and Inflammatory Diseases Based on BTK Occupancy and BTK Resynthesis Rate” (Acerta Pharma B.V., priority 2014, published 2017).
Where two headings read alike, the source gives them in different places.

How the values were obtained:
B cell receptor (BCR) [1] = assay: Ex vivo anti-IgM induced CD86 and CD69 expression on splenocyte B cells after oral dosing of mice; type: in vivo, mouse; conditions: single oral 25 mg/kg; for inhibition at 25 mg/kg: Mus musculus, B-cell, 3-24 hours, read-out: CD69 % inhibition over the entire time course; for inhibition of ex vivo anti-IgM induced responses in B cells: 3 hours post-dose
Experimental: (§1) B cell stimulation through the B cell receptor (BCR) with antibodies (e.g., anti-IgM) results in the activation of BTK and subsequent cellular changes, including the upregulation of various cell surface receptors. Measuring the inhibition of BCR induced protein phosphorylation downstream of Btk, and the inhibition of surface receptor upregulation provides a way to assess the Btk inhibitor activity. In the first study, the BTK target occupancy in splenocytes was measured over time, providing evidence for BTK resynthesis in the tissue compartment of interest.
(§2) Mice were sacrificed at 3, 6, 12, 18, and 24 hours after treatment with the BTK inhibitors (FIG. 27A, FIG. 27B, and FIG. 27C). Spleens were harvested and splenocyte preparations were made for flow cytometry analysis of B cell functions. Fresh or cryopreserved splenocytes were cultured with a-IgM to stimulate BCR, and the up-regulation of CD69, an early functional marker of B cell activation, was analyzed by flow cytometry.

S6 phosphorylation = assay: Basal and anti-IgM induced S6 phosphorylation in splenocytes after oral dosing of mice; type: in vivo, mouse; conditions: single oral 25 mg/kg; rank order Formula (II)>ibrutinib>Formula (XVII)
Experimental: as §1, §2
A downstream marker of BTK activity, S6 phosphorylation, was also monitored in this study. […] In a second study, the effects of another inhibitor of BTK that covalently inactivates the kinase, Formula (XXI), were compared with Formula (II) to evaluate the return of BCR function and B cell activation, as illustrated in FIG. 29A and FIG. 29B.

BTK = target: T1, BTK (Mus musculus, UniProt P35991); assay: BTK target occupancy in mouse splenocytes after a single oral dose; type: in vivo; conditions: single oral 25 mg/kg, 3 hours
T1 construct: from tissue; host or cells: mouse spleen (splenocytes), animals dosed in vivo; A19 used DBA/1 mice with collagen-induced arthritis
T1 sequence (P35991 whole entry): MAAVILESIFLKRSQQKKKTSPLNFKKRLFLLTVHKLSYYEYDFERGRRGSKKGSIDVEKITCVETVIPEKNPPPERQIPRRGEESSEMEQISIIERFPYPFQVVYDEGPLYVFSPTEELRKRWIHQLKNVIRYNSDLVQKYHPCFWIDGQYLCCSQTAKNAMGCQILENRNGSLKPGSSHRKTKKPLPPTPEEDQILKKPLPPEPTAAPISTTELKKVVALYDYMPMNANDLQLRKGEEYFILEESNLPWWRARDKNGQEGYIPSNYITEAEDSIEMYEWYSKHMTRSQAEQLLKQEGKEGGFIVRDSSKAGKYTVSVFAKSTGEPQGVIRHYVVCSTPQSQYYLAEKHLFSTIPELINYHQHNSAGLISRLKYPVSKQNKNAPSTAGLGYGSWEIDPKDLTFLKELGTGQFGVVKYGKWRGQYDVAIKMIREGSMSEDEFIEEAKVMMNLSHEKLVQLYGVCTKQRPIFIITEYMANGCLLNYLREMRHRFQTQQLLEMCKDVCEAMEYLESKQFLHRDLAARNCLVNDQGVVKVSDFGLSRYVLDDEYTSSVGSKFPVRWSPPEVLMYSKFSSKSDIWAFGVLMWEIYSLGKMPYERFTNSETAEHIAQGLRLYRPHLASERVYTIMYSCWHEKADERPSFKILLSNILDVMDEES

B cell receptor (BCR) [2] = assay: Ex vivo anti-IgM induced CD86 and CD69 expression on splenocyte B cells after oral dosing of mice; type: in vivo; conditions: Mus musculus, single oral 25 mg/kg, 3-24 hours, read-out: CD86 % inhibition over the entire time course
psoriasis = conditions: tyrosine kinase inhibitors used for malignancies; cited from earlier work
[3] = system: established type II collagen-induced arthritis (CIA) in DBA/1 mice; assay: 14-day mouse established type II collagen-induced arthritis (CIA), PO QD (Example 10); type: in vivo; conditions: for AUC (All Paws) - Corrected for Initial Score / Change in Body Weight (g) / Histopathology Summed Score Knees / Histopathology Summed Score Paws / Histopathology Summed Score Six-Joints / Paw Score AUC (All Paws): mean(SE); for disease-induced body weight loss (percent change from baseline) vs vehicle controls / arthritis scores measured daily vs vehicle controls: p<0.05 on the days printed; for arthritis scores measured daily vs vehicle controls: all paws
Experimental: Prior to dosing, the candidate anti-inflammatory agents were reconstituted either by vortexing or stirring. The candidate anti-inflammatory agents were administered to the DBA/1 mice daily (QD) by the oral (PO) route.
Immunization with heterologous type II collagen (CII) induces arthritis in mice of the DBA/1 strain, which is genetically susceptible to this disease. To develop an experimental model of autoimmunity more adequate for the study of human rheumatoid arthritis (RA), male DBA/1 mice were injected intradermally (ID) with bovine type II collagen to induce arthritis as reported by Trentham et al (Trentham D E, Townes A S, Kang A H Autoimmunity to type II collagen: an experimental model of arthritis. J. Exper. Med. 1977, 146:857-868) and Bendele A (Bendele A, Animal models of rheumatoid arthritis. J. Musculoskelet. Neuronal Interact. 2001, 1(4):377-85). Male DBA/1 mice (n=114) that were 6-7 weeks old and weighed approximately 18-27 grams (mean 22 g) at enrollment (arthritis day 1) were obtained from Taconic Farms, Inc. The male DBA/1 mice were at least 6 weeks old at time of first immunization and were housed 3-5/cage in shoe-box polycarbonate cages with wire tops, wood chip bedding, and suspended food and water bottles. These animals were identified by a distinct number of ink marks at the base of the tail delineating animal number. After enrollment, all cages were labeled with protocol number, group number, and animal numbers.
The male DBA/1 (n=10/group for arthritis) were anaesthetized with Isoflurane, shaved at the base of the tail, and injected intradermally with 150 μL of Freund's Complete Adjuvant (Difco, Detroit, Mich.) containing bovine type II collagen (BBP, batch #7) (1 mg/ml) at the base of the tail on day 0 and again on day 21. […] Randomization was done after swelling was obviously established in at least one paw (score of 1) and attempts were made to ensure approximately equal mean scores of 0.5-1 across groups at the time of enrollment. […] The male DBA/1 mice were terminated on arthritis day 14 (3 hours post-dose).
Efficacy evaluation of the administered anti-inflammatory agents was based on animal body weights, clinical arthritis scores, arthritis scores expressed as area under the curve (AUC), and histopathology on fore paws, hind paws, and knees. Histopathology results were expressed as 4 paws, knees only, or 6 joints (knees included). Day 13 was used as the endpoint for analysis of body weight change since the male DBA/1 mice were fasted overnight prior to necropsy on day 14.

[4] = system: BCR signaling through BTK; assay: Anti-IgM induced CD86 and CD69 on splenocyte B cells of CIA mice; type: in vivo, mouse; conditions: splenocytes 3 hr after last dosing on day 14
Experimental: (§3) FIG. 45 illustrates changes in a functional measure of BCR signalling through the CD86 marker. Mouse splenocytes were isolated from spleens from mice that were part of the mouse CIA study semi-therapeutic protocol, 3 hr after the last dosing on day 14 of the treatment and cryopreserved. After thawing, inhibition of anti-IgM-induced PD markers CD86 and CD69 on mouse splenocyte B cells were measured. Error bars represent the standard deviation for the 3 sets of splenocytes analyzed.
as §3, with “FIG. 46” for “FIG. 45”, “the CD69” for “the CD86”
Inhibition of the BCR signaling through BTK was evaluated by ex vivo stimulation of splenocytes using IgM and evaluation of CD86 and CD69 as functional responses of BCR stimulation.

With `C=CC(=O)Nc1cccc(Nc2nc(Nc3ccc(OCCOC)cc3)ncc2F)c1` [Formula (XVII), N-(3-((5-fluoro-2-((4-(2-methoxyethoxy)phenyl)amino)pyrimidin-4-yl)amino)phenyl)acrylamide] the inhibition at 25 mg/kg (B cell receptor (BCR) [1]) was 44.8%, the “inhibition of ex vivo anti-IgM induced responses in B cells” value (B cell receptor (BCR) [1]) was “incomplete inhibition” and the “basal state and anti-IgM induced S6 phosphorylation” value (S6 phosphorylation) was “inhibited both basal state and anti-IgM induced S6 phosphorylation”. The “BTK target occupancy in splenocytes” value (BTK) was “incomplete BTK target occupancy” and the inhibition at 25 mg/kg (B cell receptor (BCR) [2]) was 28.1%.
For `Cc1ccc(C(=O)Nc2ccc(CN3CCN(C)CC3)c(C(F)(F)F)c2)cc1C#Cc1cnc2cccnn12` [Ponatinib], the “effect on psoriasis / skin in patients” value (psoriasis) is given as “induces an almost psoriasis-like disease”.
For `Cc1nc(Nc2ncc(C(=O)Nc3c(C)cccc3Cl)s2)cc(N2CCN(CCO)CC2)n1` [dasatinib], the “effect on psoriasis / skin in patients” value (psoriasis) is listed as “has not been reported to improve psoriasis”.
With `C=CC(=O)N1CCC[C@@H](n2nc(-c3ccc(Oc4ccccc4)cc3)c3c(N)ncnc32)C1` [ibrutinib, (R)-1-(3-(4-amino-3-(4-phenoxyphenyl)-1H-pyrazolo[3,4-d]pyrimidin-1-yl)piperidin-1-yl)prop-2-en-1-one] the inhibition at 25 mg/kg (B cell receptor (BCR) [1]) was 83.4%, the “inhibition of ex vivo anti-IgM induced responses in B cells” value (B cell receptor (BCR) [1]) was “near complete inhibition” and the “inhibition of CD86 and CD69 expression” value (B cell receptor (BCR) [1]; persisting for 24 hours) was “partial inhibition”. For the same molecule, the “basal state and anti-IgM induced S6 phosphorylation” value (S6 phosphorylation) was “inhibited both basal state and anti-IgM induced S6 phosphorylation”, the “AUC (All Paws) - Corrected for Initial Score” value (shortened to “AUC (All Paws) - Corrected”) ([3]; 1 mg/kg PO QD) was 20.81(4.47) and the “Change in Body Weight (g)” value ([3]; 1 mg/kg PO QD) was −1.28(0.69) g. For the same molecule, the “Histopathology Summed Score Knees” value ([3]; 1 mg/kg PO QD) was “‡10.15(1.16)”, the “Histopathology Summed Score Paws” value ([3]; 1 mg/kg PO QD) was 10.30(1.84) and the “Histopathology Summed Score Six-Joints” value ([3]; 1 mg/kg PO QD) was 10.25(1.36). For the same molecule, the “Paw Score AUC (All Paws)” value ([3]; 1 mg/kg PO QD) was 28.29(5.18), the “disease-induced body weight loss (percent change from baseline) vs vehicle controls” value ([3]; 1 mg/kg PO QD) was “significantly inhibited toward normal” and the “daily arthritis scores vs vehicle controls” value ([3]; 1 mg/kg PO QD, prophylactic paws) was “significantly reduced toward normal”. The “six-joint histopathology, reduction of summed scores vs vehicle controls” value ([3]; 5 mg/kg PO QD) was 79%, the “total body weight loss from enrollment to study termination” value ([3]; 5 mg/kg PO QD) was “significantly inhibited” and the “arthritis scores measured daily vs vehicle controls” value ([3]; 5 mg/kg PO QD) was “significantly reduced toward normal”. For the same molecule, the “AUC (All Paws) - Corrected” value ([3]; 5 mg/kg PO QD) was “*3.68(2.18)”, the “Change in Body Weight (g)” value ([3]; 5 mg/kg PO QD) was “*0.45(0.65) g” and the “Histopathology Summed Score Paws” value ([3]; 5 mg/kg PO QD) was “*3.63(1.07)”. The “Histopathology Summed Score Six-Joints” value ([3]; 5 mg/kg PO QD) was “*3.11(0.95)”, the “disease-induced body weight loss (percent change from baseline) vs vehicle controls” value ([3]; 5 mg/kg PO QD) was “significantly inhibited toward normal” and the “daily arthritis scores vs vehicle controls” value ([3]; 5 mg/kg PO QD, prophylactic paws) was “significantly reduced toward normal”. For the same molecule, the “six-joint histopathology, reduction of summed scores vs vehicle controls” value ([3]; 25 mg/kg PO QD) was 94%, the “total body weight loss from enrollment to study termination” value ([3]; 25 mg/kg PO QD) was “significantly inhibited” and the “arthritis scores measured daily vs vehicle controls” value ([3]; 25 mg/kg PO QD) was “significantly reduced toward normal”. The “AUC (All Paws) - Corrected” value ([3]; 25 mg/kg PO QD) was “*−4.09(1.58)”, the “Change in Body Weight (g)” value ([3]; 25 mg/kg PO QD) was “*0.83(0.62) g” and the “Histopathology Summed Score Knees” value ([3]; 25 mg/kg PO QD) was “*0.65(0.29)”. For the same molecule, the “Histopathology Summed Score Paws” value ([3]; 25 mg/kg PO QD) was “*0.91(0.48)”, the “Histopathology Summed Score Six-Joints” value ([3]; 25 mg/kg PO QD) was “*0.83(0.30)” and the “Paw Score AUC (All Paws)” value ([3]; 25 mg/kg PO QD) was “*3.06(1.08)”. The “disease-induced body weight loss (percent change from baseline) vs vehicle controls” value ([3]; 25 mg/kg PO QD) was “significantly inhibited toward normal”, the “daily arthritis scores vs vehicle controls” value ([3]; 25 mg/kg PO QD, prophylactic paws) was “significantly reduced toward normal” and the “daily arthritis scores vs vehicle controls” value ([3]; 25 mg/kg PO QD, therapeutic paws) was “significantly reduced toward normal”. The “spleen weights compared to vehicle controls” value ([3]; all dose groups PO QD) was “not significantly affected”, the “BCR-mediated signaling (anti-IgM induced CD86 and CD69)” value [4] was “dose-responsive decreases in BCR-mediated signaling” and the inhibition at 25 mg/kg (B cell receptor (BCR) [2]) was 62.9%.
For `Cc1ccc(NC(=O)c2ccc(CN3CCN(C)CC3)cc2)cc1Nc1nccc(-c2cccnc2)n1` [imatinib], the “effect on psoriasis / skin in patients” value (psoriasis) is given as “may cause worsening of psoriasis”.
